Results from patent US7094581B2, “Hyaluronan synthases and methods of making and using same” (The Board of Regents of the University of Oklahoma, priority 1998, dated 2006).
Read-outs that look alike come from different tables or passages of the source.

System: wild-type seHAS
Assay: Utilization of UDP-GlcUA and UDP-GlcNAc by wild-type seHAS after NEM or sodium arsenite treatment
Type: biochemical, Streptococcus equisimilis
Conditions: membranes 4° C. 1 h with 5 mM NEM or 10 mM sodium arsenite
Procedure: FIG. 3. Effect of NEM or sodium arsenite treatment on the utilization of UDP-GIcUA and UDP-GIcNAc by wild-type seHAS. E. coli membranes containing seHAS protein were incubated at 4° C. for 1 h in PBS containing 5 mM NEM or 10 mM Sodium Arsenite (SodArs), and the control membranes were incubated with PBS alone. Michaelis-Menten constants (Km) were calculated from the activities of seHAS at varying concentrations of UDP-GIcUA or UDP-GIcNAc.
Modification of the protein by NEM could affect any one or several of the six discrete functions that HAS must perform in order to synthesize HA. In order to determine if one of the nucleotide-sugar binding sites was affected by NEM, we examined the UDP-GIcUA and UDP-GIcNAc saturation profiles for treated and untreated seHAS (FIG. 3 and Table III).
E. coli SURE cells transformed with plasmids containing various seHAS mutants were grown in LB medium with vigorous shaking at 32° C. to A600 ˜0.8 and induced with 1 mM isopropyl-β-thiogalactoside for 3 h. Cells were harvested and membranes were prepared as described previously. The kinetic constants for HAS were determined at 37° C. in 100 μl of 50 mM sodium and potassium phosphate, pH 7.0, with 20 mM MgCl2, 1 mM DTE, 240 μM UDP-GIcUA, 0.7 μM UDP-[^14C]GIcUA and 0.6–1.0 mM UDP-GIcNAc. in 100 μl of 25 mM sodium and potassium phosphate, pH 7, containing 50 mM NaCl, 20 mM MgCl2, 1 mM dithiothreitol, 1 mM UDP-GIcUA, 0.68 μM UDP-GIcUA and 1 mM UDP-GIcNAc. Some assays also contained 0.1 mM EDTA and 20% glycerol (v/v). To initiate the enzyme reaction, ˜0.5–40 μg of membrane protein was added and the mixtures were gently shaken in a MicroMixer X-36 (Tiatec) at 30° C. for 1–2 h. Reactions were terminated by the addition of SDS to a final concentration of 2% (w/v). The incorporation of radioactive [^14C]GIcUA was determined by descending paper chromatography and the Km and Vmax values were determined as described by Tlapak-Simmons et al (1999b). Data were analyzed by the methods of Michaelis-Menton or Hill. Protein content was determined by the method of Bradford using bovine serum albumin as the standard. All Cys-mutant or sulfhydryl-treated seHAS samples were assayed in duplicate or triplicate using two or three independent membrane preparations. Results are presented as the mean±standard errors. All enzyme assays were performed under conditions that were linear with respect to time and protein concentration. None of the seHAS variant enzymes were unstable under the conditions employed.

**Q.** What does the source list for `CCN1C(=O)C=CC1=O` [N-ethylmaleimide]?
**A.** Vmax of treated wild-type seHAS, UDP-GlcNAc: 7.3 ± 2.2 nmol/µg/h; Vmax of treated wild-type seHAS, UDP-GlcUA: 7.3 ± 2.2 nmol/µg/h; Km (read-out: Km for UDP-GlcNAc of treated wild-type seHAS): 82 ± 17 µM; Km (read-out: Km for UDP-GlcUA of treated wild-type seHAS): 57 ± 5 µM
